{"source": "patent US12264170B2", "about": "“Antimicrobial organosilanes” (TOPIKOS SCIENTIFIC, INC., priority 2019, dated 2025)", "key": {"Mycoplasma pneumoniae": {"system": "Mycoplasma pneumoniae", "assay": "Disk diffusion susceptibility test", "type": "cell-based", "settings": "repeated experiment, FIG. 2"}, "Aspergillus niger": {"system": "Aspergillus niger", "assay": "Disk diffusion susceptibility test", "type": "cell-based"}, "Candida albicans": {"system": "Candida albicans", "assay": "Disk diffusion susceptibility test", "type": "cell-based"}, "Fusarium oxysporum": {"system": "Fusarium oxysporum", "assay": "Disk diffusion susceptibility test", "type": "cell-based"}, "[1]": {"system": "Candida albicans ATCC 90028", "assay": "MIC microdilution assay (Example 32)", "type": "cell-based", "settings": "C. albicans ATCC 90028 (quality control); RPMI media; 35±2° C. 24 to 48 hours; two values given", "description": "(§1) Strain IDs starting with “ATCC” were acquired from the American Type Culture Collection (Manassas, VA), strain IDs starting with “Eurofins” were acquired from Eurofins (Herndon, VA), while strain IDs starting with “CDC” were acquired from the Centers for Disease Control and Prevention (Atlanta, GA). All strains were maintained as −80° C. frozen glycerol stocks. S. aureus and P. aeruginosa were grown overnight on Tryptic Soy Agar (TSA) plates at 35±2° C., ambient atmosphere, while S. pyogenes was grown overnight on TSA+5% defibrinated sheep blood at 35±2° C., 5% CO2. C. jejuni was grown for 48 hours on TSA+5% defibrinated sheep blood at 35±2° C., in a microaerophilic environment generated by CampyGen sachet. All fungal species (i.e. C. albicans and C. auris) were grown overnight on Sabouraud Dextrose Agar (SDA) plates at 35±2° C., ambient atmosphere.\n(§2) Test article Compound 1 (batch #7G30A9.203) was stored at 4° C. The antibiotic Tobramycin and antifungal Amphotericin B were used as quality control (QC) compounds for the MIC assay. Stock solutions of 3.2 mg/mL Tobramycin (Sigma-Aldrich, cat #T1783-500MG) and 3.2 mg/mL Amphotericin B (CP Lab Chemicals, cat #TOK-A007-1G) were prepared in sterile ultrapure water.\n(§3) For bacteria strains, a few colonies of each strain were collected with a sterile swab and used to make a McFarland 0.5 standard solution (approximately 1×10^8 CFU/mL) in sterile PBS. The McFarland was then diluted 1:180 in Cation Adjusted Muller-Hinton Broth (CAMHB) for S. aureus and P. aeruginosa. S. pyogenes McFarland was diluted 1:180 in CAMHB+5% defibrinated sheep blood, while C. jejuni McFarland was diluted 1:180 in CAMHB+5% laked horse blood. 90 μL of this inoculum was combined with 10 μL of the 10× test article in a 96-well plate for a final concentration of 1×.\n(§4) For the yeasts C. albicans and C. auris, a McFarland 0.5 standard solution in sterile PBS was similarly prepared (approximately 1×10^6 CFU/mL) and was subsequently diluted 1:180 in RPMI 1640 media buffered with 0.165 M MOPS at pH 7.0 (herein referred to as “RPMI media”). 90 μL of the Candida inoculum was combined with 10 μL of the 10× test article in a 96-well plate for a final concentration of 1×.\n(§5) Except for C. jejuni, all bacterial-strain MIC 96-well plates were incubated at 35±2° C. for 18 to 20 hours, ambient atmosphere. C. jejuni was incubated at 35±2° C. for 48 hours, under microaerophilic condition. All Candida MIC 96-well plates were incubated at 35±2° C. for 24 to 48 hours, ambient atmosphere, until growth in control wells were observed. After incubation, the 96-well plates were examined visually and on a spectrophotometer at absorbance OD650. MIC is defined as the lowest concentration of a compound in which no visible growth is observed."}, "Candida auris CDC 0385 [2]": {"system": "Candida auris CDC 0385", "assay": "MIC microdilution assay (Example 32)", "type": "cell-based", "settings": "C. auris CDC 0385; RPMI media; 35±2° C. 24 to 48 hours; two values given", "description": "as §1, §2, §3, §4, §5"}, "[3]": {"system": "Pseudomonas aeruginosa Eurofins 1674623", "assay": "MIC microdilution assay (Example 32)", "type": "cell-based", "settings": "P. aeruginosa Eurofins 1674623; CAMHB; 35±2° C. 18 to 20 hours; two values given", "description": "as §1, §2, §3, §5"}, "[4]": {"system": "Streptococcus pyogenes Eurofins 2065755", "assay": "MIC microdilution assay (Example 32)", "type": "cell-based", "settings": "S. pyogenes Eurofins 2065755; CAMHB+5% defibrinated sheep blood; 35±2° C. 18 to 20 hours; two values given", "description": "as §1, §2, §3, §5"}, "[5]": {"system": "Pseudomonas aeruginosa ATCC 27853", "assay": "MIC microdilution assay (Example 32)", "type": "cell-based", "settings": "P. aeruginosa ATCC 27853 (quality control); CAMHB; 35±2° C. 18 to 20 hours; two values given", "description": "as §1, §2, §3, §5"}, "[6]": {"system": "Pseudomonas aeruginosa CDC 0248", "assay": "MIC microdilution assay (Example 32)", "type": "cell-based", "settings": "P. aeruginosa CDC 0248; CAMHB; 35±2° C. 18 to 20 hours; two values given", "description": "as §1, §2, §3, §5"}, "Staphylococcus aureus": {"system": "Staphylococcus aureus", "assay": "Disk diffusion susceptibility test", "type": "cell-based", "settings": "repeated experiment, FIG. 2"}, "Enterococcus faecalis": {"system": "Enterococcus faecalis", "assay": "Disk diffusion susceptibility test", "type": "cell-based"}, "[7]": {"system": "Pseudomonas aeruginosa Eurofins 1674623", "assay": "MBC/MFC determination (Example 32)", "type": "cell-based", "settings": "P. aeruginosa Eurofins 1674623; plated after 18 to 20 hours incubation; two values given", "description": "(§6) 10 μL of liquid from each test condition was plated on the appropriate agar media for each test strain. Except for C. jejuni, all other strains were plated for MBC/MFC after 18 to 20 hours incubation, or until growth in growth control wells were visually observed. MBC for C. jejuni was plated 48 hours after incubation of the 96-well plate. Once the liquid from the 96-well plate has been allowed to air dry in a biosafety cabinet, the agar plates were incubated under the appropriate conditions and colony formation was assessed. MBC/MFC is defined as the lowest concentration of a compound in which no colonies were recovered."}, "[8]": {"system": "Candida albicans ATCC 90028", "assay": "MBC/MFC determination (Example 32)", "type": "cell-based", "settings": "C. albicans ATCC 90028; plated after 18 to 20 hours incubation or until growth in control wells; two values given", "description": "as §6"}, "[9]": {"system": "Streptococcus pyogenes Eurofins 2065755", "assay": "MBC/MFC determination (Example 32)", "type": "cell-based", "settings": "S. pyogenes Eurofins 2065755; plated after 18 to 20 hours incubation; two values given", "description": "as §6"}, "[10]": {"system": "Pseudomonas aeruginosa ATCC 27853", "assay": "MBC/MFC determination (Example 32)", "type": "cell-based", "settings": "P. aeruginosa ATCC 27853; plated after 18 to 20 hours incubation; two values given", "description": "as §6"}, "[11]": {"system": "Campylobacter jejuni CDC 0413", "assay": "MBC/MFC determination (Example 32)", "type": "cell-based", "settings": "C. jejuni CDC 0413; plated 48 hours after incubation; two values given", "description": "as §6"}, "[12]": {"system": "Pseudomonas aeruginosa CDC 0248", "assay": "MBC/MFC determination (Example 32)", "type": "cell-based", "settings": "P. aeruginosa CDC 0248; plated after 18 to 20 hours incubation; two values given", "description": "as §6"}, "Candida auris CDC 0385 [13]": {"system": "Candida auris CDC 0385", "assay": "MBC/MFC determination (Example 32)", "type": "cell-based", "settings": "C. auris CDC 0385; plated after 18 to 20 hours incubation or until growth in control wells; two values given", "description": "as §6"}, "[14]": {"system": "Acinetobacter baumannii Eurofins 1674627", "assay": "MBC/MFC determination (Example 32)", "type": "cell-based", "settings": "A. baumannii Eurofins 1674627; plated after 18 to 20 hours incubation; two values given", "description": "as §6"}, "[15]": {"system": "Proteus mirabilis and Pseudomonas aeruginosa", "assay": "Treatment of ocular infection in a dog", "type": "in vivo", "settings": "male bull dog, 2% aqueous solution 3 times per day; for examination of the eyes: infection in both eyes", "description": "A male bull dog presented with an infection in both eyes which was cultured and tested positive for Proteus mirabilis and Pseudomonas aeruginosa. The dog was administered a 2% aqueous solution of Compound 1 at a rate of 3 times per day for 7 days. […] On day 6, the dog was reexamined. […] To verify, a swab of the eye was taken and cultured. The culture was negative for both Proteus mirabilis and Pseudomonas aeruginosa."}, "[16]": {"settings": "10 mg/mL, repeated experiment, FIG. 2"}, "[17]": {"settings": "100 mg/mL, repeated experiment, FIG. 2"}}, "data": [{"smiles": "CCCCCCCCCCCCCCCCCC[N+](C)(C)CCC[Si](OCC(CO)(CO)NCCS(=O)(=O)[O-])(OCC(CO)(CO)NCCS(=O)(=O)[O-])OCC(CO)(CO)NCCS(=O)(=O)O.[Cl-].[Na+].[Na+]", "note": "[Compound 1]", "values": [{"measurement": "inhibition (zone of inhibition), disk diffusion", "setting": "Mycoplasma pneumoniae; 1 mg/mL", "value": "complete inhibition"}, {"measurement": "inhibition (zone of inhibition), disk diffusion", "setting": "Mycoplasma pneumoniae; 10 mg/mL", "value": "complete inhibition"}, {"measurement": "inhibition (zone of inhibition), disk diffusion", "setting": "Mycoplasma pneumoniae; 100 mg/mL", "value": "complete inhibition"}, {"measurement": "inhibition (zone of inhibition), disk diffusion", "setting": "Aspergillus niger; [16]", "value": "complete inhibition"}, {"measurement": "inhibition (zone of inhibition), disk diffusion", "setting": "Aspergillus niger; [17]", "value": "complete inhibition"}, {"measurement": "inhibition (zone of inhibition), disk diffusion", "setting": "Aspergillus niger; 1% aqueous solution, FIG. 1", "value": "complete inhibition"}, {"measurement": "inhibition (zone of inhibition), disk diffusion", "setting": "Aspergillus niger; 2% aqueous solution, FIG. 1", "value": "complete inhibition"}, {"measurement": "inhibition (zone of inhibition), disk diffusion", "setting": "Candida albicans; [16]", "value": "complete inhibition"}, {"measurement": "inhibition (zone of inhibition), disk diffusion", "setting": "Candida albicans; [17]", "value": "complete inhibition"}, {"measurement": "inhibition (zone of inhibition), disk diffusion", "setting": "Candida albicans; 1% aqueous solution, FIG. 1", "value": "complete inhibition"}, {"measurement": "inhibition (zone of inhibition), disk diffusion", "setting": "Candida albicans; 2% aqueous solution, FIG. 1", "value": "complete inhibition"}, {"measurement": "inhibition (zone of inhibition), disk diffusion", "setting": "Fusarium oxysporum; [16]", "value": "complete inhibition"}, {"measurement": "inhibition (zone of inhibition), disk diffusion", "setting": "Fusarium oxysporum; [17]", "value": "complete inhibition"}, {"measurement": "inhibition (zone of inhibition), disk diffusion", "setting": "Fusarium oxysporum; 1% aqueous solution, FIG. 1", "value": "complete inhibition"}, {"measurement": "inhibition (zone of inhibition), disk diffusion", "setting": "Fusarium oxysporum; 2% aqueous solution, FIG. 1", "value": "complete inhibition"}, {"measurement": "MIC", "setting": "[1]", "value": 1, "unit": "µg/mL"}, {"measurement": "MIC", "setting": "Candida auris CDC 0385 [2]", "value": 1, "unit": "µg/mL"}, {"measurement": "MIC", "setting": "[3]", "value": ">64", "unit": "µg/mL"}, {"measurement": "MIC", "setting": "[4]", "value": 8, "unit": "µg/mL"}, {"measurement": "MIC", "setting": "[5]", "value": ">64", "unit": "µg/mL"}, {"measurement": "MIC", "setting": "[6]", "value": ">64", "unit": "µg/mL"}, {"measurement": "inhibition (zone of inhibition), disk diffusion", "setting": "Staphylococcus aureus; 1 mg/mL", "value": "complete inhibition"}, {"measurement": "inhibition (zone of inhibition), disk diffusion", "setting": "Staphylococcus aureus; 10 mg/mL", "value": "complete inhibition"}, {"measurement": "inhibition (zone of inhibition), disk diffusion", "setting": "Staphylococcus aureus; 100 mg/mL", "value": "complete inhibition"}, {"measurement": "inhibition (zone of inhibition), disk diffusion", "setting": "Enterococcus faecalis; 1 mg/mL, repeated experiment, FIG. 2", "value": "complete inhibition"}, {"measurement": "inhibition (zone of inhibition), disk diffusion", "setting": "Enterococcus faecalis; [16]", "value": "complete inhibition"}, {"measurement": "inhibition (zone of inhibition), disk diffusion", "setting": "Enterococcus faecalis; [17]", "value": "complete inhibition"}, {"measurement": "inhibition (zone of inhibition), disk diffusion", "setting": "Enterococcus faecalis; 1% aqueous solution, FIG. 1", "value": "complete inhibition"}, {"measurement": "inhibition (zone of inhibition), disk diffusion", "setting": "Enterococcus faecalis; 2% aqueous solution, FIG. 1", "value": "complete inhibition"}, {"measurement": "MBC", "setting": "[7]", "value": ">64", "unit": "µg/mL"}, {"measurement": "MBC", "setting": "[8]", "value": 1, "unit": "µg/mL"}, {"measurement": "MBC", "setting": "[9]", "value": 8, "unit": "µg/mL"}, {"measurement": "MBC", "setting": "[10]", "value": ">64", "unit": "µg/mL"}, {"measurement": "MBC", "setting": "[11]", "value": 32, "unit": "µg/mL"}, {"measurement": "MBC", "setting": "[12]", "value": ">64", "unit": "µg/mL"}, {"measurement": "MBC", "setting": "Candida auris CDC 0385 [13]", "value": 2, "unit": "µg/mL"}, {"measurement": "MBC", "setting": "[14]", "value": 64, "unit": "µg/mL"}, {"measurement": "examination of the eyes", "setting": "[15]; day 2", "value": "signs of reduced infection"}, {"measurement": "examination of the eyes", "setting": "[15]; day 6", "value": "no sign of infection"}, {"measurement": "culture of eye swab for Proteus mirabilis and Pseudomonas aeruginosa", "setting": "[15]; swab at day 6", "value": "negative"}]}]}
